Results taken from patent US7198906B2, “Drug sensitivity measuring method” (priority 2000, dated 2007).

How the values were obtained:
[1] = tested on: E. coli resistant strain 5W (ABPC plasmid introduction); assay: Drug susceptibility measurement with dissolved oxygen electrode, resistant strain; format: cell-based
Excerpt: (§1) In step SP1, measurement of currents (output signals) is started by applying predetermined voltages to electrodes for measuring dissolved oxygen concentration. The electrodes are provided within a first compartment or well, second compartment or well, and third compartment or well, respectively. The first compartment or well is a compartment or well containing only physiological salt solution. The second compartment or well is a compartment or well containing physiological salt solution and drug solution of a first predetermined concentration. The third compartment or well is a compartment or well containing physiological salt solution and drug solution of a second predetermined concentration. […] In step SP4, current from each electrode for measuring dissolved oxygen concentration is measured at a second time interval for a third time period (for example, at every 1 second for 60 seconds). In step SP5, each time is obtained based upon each of the measured currents at which the maximum current is obtained. […] In step SP7, drug susceptibility is detected based upon the variation condition of each current value during the fourth time period. […]
(§2) Next, the electrode for measuring the dissolved oxygen concentration is mounted to each compartment or well. […] After the measurement time of 360 seconds has passed, the measured currents are stored and the measured currents are analyzed. […]

[2] = tested on: E. coli sensitive strain JM109; assay: Drug susceptibility measurement with dissolved oxygen electrode, sensitive strain; format: cell-based
Excerpt: as §1, §2

Compound: CC1(C)S[C@@H]2[C@H](NC(=O)[C@H](N)c3ccccc3)C(=O)N2[C@H]1C(=O)O [ABPC, Ampicillin]
- variation characteristic of measured current (dissolved oxygen) following passage in time, curve versus control ([1]; 5W+ABPC, control JM109 as reference, FIGS. 2 and 3): equal to or more steep than the curve corresponding to the control
- inclination of measured current for 10 seconds from the peak timing, supposing the inclination corresponding to the control to be 100% ([1]; resistant strain 5W + ABPC solution 5.3 μg/ml, entire amount 0.25 ml and 0.5 ml, control JM109 without drug = 100%): 96.1–122.9%
- variation characteristic of measured current (dissolved oxygen) following passage in time, curve versus control ([2]; JM109+ABPC, control JM109 as reference, FIGS. 2 and 3): more gentle than curves each corresponding to the control and the resistant strain
- inclination of measured current for 10 seconds from the peak timing, supposing the inclination corresponding to the control to be 100% ([2]; sensitive strain JM109 + ABPC solution 5.3 μg/ml, entire amount 0.25 ml and 0.5 ml, control JM109 without drug = 100%): 79.0–85.4%
